Results taken from ChEMBL document CHEMBL3745637, “New hybrid molecules with anticonvulsant and antinociceptive activity derived from 3-methyl- or 3,3-dimethyl-1-[1-oxo-1-(4-phenylpiperazin-1-yl)propan-2-yl]pyrrolidine-2,5-diones” (Bioorg Med Chem, 2016).
Active and inactive are the calls of the source. The rule behind the calls is not given here.

What was measured:
[1] = system: Mus musculus; experiment: Anticonvulsant activity in ip dosed Swiss mouse assessed as reduction in clonic seizures at 0.25 hrs by subcutaneous pentylenetetrazole seizure test; type: functional
[2] = system: Mus musculus; experiment: Antinociceptive activity in ip dosed Swiss mouse assessed as reduction of formalin-induced licking at MES ED50 pretreated for 0.5 hrs measured during 1 to 5 mins; type: functional, organism-based
[3] = system: Mus musculus; experiment: Anticonvulsant activity in Swiss mouse assessed as protection against maximal electroshock-induced seizures at 300 mg/kg, ip pretreated for 2 hrs; type: functional, organism-based
[4] = system: Mus musculus; experiment: Anticonvulsant activity in ip dosed Swiss mouse assessed as protection against maximal electroshock-induced seizures at 0.5 hrs; type: functional
[5] = Neurotoxicity in ip dosed Swiss mouse seizure model assessed as motor impairment pretreated for 0.5 hrs measured within 60 s by chimney test; type: toxicity, organism-based; conditions: in vivo
[6] = system: Mus musculus; experiment: Anticonvulsant activity against Swiss mouse seizure model assessed as protection at 100 mg/kg, ip pretreated for 0.5 hrs by 6 Hz psychomotor seizure test; type: functional, organism-based
[7] = system: Mus musculus; experiment: Anticonvulsant activity in Swiss mouse assessed as prolong latency to first seizure episode at 60 mg/kg pretreated for 0.5 hrs measured after 30 mins by subcutaneous pentylenetetrazole seizure test; type: functional, organism-based
[8] = system: Mus musculus; experiment: Anticonvulsant activity in ip dosed Swiss mouse assessed as protection against maximal electroshock-induced seizures at 0.25 hrs; type: functional
[9] = Protective index, ratio of TD50 for neurotoxicity in ip dosed Swiss mouse to ED50 for anticonvulsant activity in ip dosed Swiss mouse 6 Hz psychomotor seizure model at 0.25 hrs; type: toxicity, organism-based; conditions: in vivo, read-out: Ratio TD50/ED50
[10] = system: Mus musculus; experiment: Potency index, ratio of ethosuximide ED50 to compound ED50 for anticonvulsant activity in ip dosed scPTZ Swiss mouse model at 0.25 hrs; type: functional
[11] = species: Rattus norvegicus; experiment: Displacement of [3H]nitrendipine from calcium channel L-Type dihydropyridine site in rat cerebral cortex at 500 uM after 120 mins by scintillation counting method; type: tissue-based
[12] = system: Mus musculus; experiment: Anticonvulsant activity in Swiss mouse assessed as protection against maximal electroshock-induced seizures at 100 mg/kg, ip pretreated for 2 hrs; type: functional, organism-based
[13] = species: Rattus norvegicus; experiment: Displacement of [3H]nitrendipine from calcium channel L-Type dihydropyridine site in rat cerebral cortex at 100 uM after 120 mins by scintillation counting method; type: tissue-based
[14] = system: Mus musculus; experiment: Antinociceptive activity in ip dosed Swiss mouse assessed as reduction of formalin-induced licking at MES ED50 pretreated for 0.5 hrs measured during 15 to 20 mins; type: functional; parameters: scale not given: the % may be the effect or the level left
[15] = Protective index, ratio of TD50 for neurotoxicity in ip dosed Swiss mouse to ED50 for anticonvulsant activity in ip dosed scPTZ Swiss mouse model at 0.25 hrs; type: toxicity, organism-based; conditions: in vivo, read-out: Ratio TD50/ED50
[16] = system: Mus musculus; experiment: Anticonvulsant activity against ip dosed Swiss mouse seizure model assessed as protection at 0.5 hrs by 6 Hz psychomotor seizure test; type: functional
[17] = system: Mus musculus; experiment: Anticonvulsant activity in Swiss mouse assessed as protection against maximal electroshock-induced seizures at 300 mg/kg, ip pretreated for 0.5 hrs; type: functional, organism-based
[18] = species: Rattus norvegicus; experiment: Displacement of [3H]Batrachotoxinin from sodium channel site 2 in rat cerebral cortex at 100 uM after 60 mins by scintillation counting method; type: tissue-based
[19] = Protective index, ratio of TD50 for neurotoxicity in ip dosed Swiss mouse to ED50 for anticonvulsant activity in ip dosed scPTZ Swiss mouse model at 0.5 hrs; type: toxicity, organism-based; conditions: in vivo, read-out: Ratio TD50/ED50
[20] = target: T1, Glutamate NMDA receptor (Rattus norvegicus) (UniProt P35439+Q00959+Q00960+Q00961+Q62645+Q8VHN2+Q9R1M7); experiment: Displacement of [3H]CGP-39653 from NMDA receptor in rat cerebral cortex at 500 uM after 60 mins by scintillation counting method; type: tissue-based
[21] = species: Rattus norvegicus; experiment: Displacement of [3H]Batrachotoxinin from sodium channel site 2 in rat cerebral cortex at 500 uM after 60 mins by scintillation counting method; type: tissue-based
[22] = system: Mus musculus; experiment: Anticonvulsant activity in ip dosed Swiss mouse assessed as prolong latency to first seizure episode pretreated for 0.5 hrs measured after 30 mins by subcutaneous pentylenetetrazole seizure test; type: functional, organism-based
[23] = target: T1, Glutamate NMDA receptor (Rattus norvegicus); experiment: Displacement of [3H]CGP-39653 from NMDA receptor in rat cerebral cortex at 100 uM after 60 mins by scintillation counting method; type: tissue-based
[24] = system: Mus musculus; experiment: Anticonvulsant activity against ip dosed Swiss mouse seizure model assessed as protection at 0.25 hrs by 6 Hz psychomotor seizure test; type: functional
[25] = Protective index, ratio of TD50 for neurotoxicity in ip dosed Swiss mouse to ED50 for anticonvulsant activity in ip dosed Swiss mouse 6 Hz psychomotor seizure model at 0.5 hrs; type: toxicity, organism-based; conditions: in vivo, read-out: Ratio TD50/ED50
[26] = Neurotoxicity in ip dosed Swiss mouse seizure model assessed as motor impairment pretreated for 0.25 hrs measured within 60 s by chimney test; type: toxicity, organism-based; conditions: in vivo
[27] = system: Mus musculus; experiment: Anticonvulsant activity against Swiss mouse seizure model assessed as protection at 100 mg/kg, ip pretreated for 0.25 hrs by 6 Hz psychomotor seizure test; type: functional, organism-based
[28] = Protective index, ratio of TD50 for neurotoxicity in ip dosed Swiss mouse to ED50 for anticonvulsant activity in ip dosed MES Swiss mouse model at 0.5 hrs; type: toxicity, organism-based; conditions: in vivo, read-out: Ratio TD50/ED50
[29] = Protective index, ratio of TD50 for neurotoxicity in ip dosed Swiss mouse to ED50 for anticonvulsant activity in ip dosed MES Swiss mouse model at 0.25 hrs; type: toxicity, organism-based; conditions: in vivo, read-out: Ratio TD50/ED50
[30] = system: Mus musculus; experiment: Anticonvulsant activity in ip dosed Swiss mouse assessed as reduction in clonic seizures at 0.5 hrs by subcutaneous pentylenetetrazole seizure test; type: functional

CC1CC(=O)N(C(C)C(=O)N2CCN(c3cccc(C(F)(F)F)c3)CC2)C1=O (stereo not given)
ED50 [1]: 65.7 mg/kg
Activity [2]: inactive
Activity [3]: Active
ED50 [4]: 74.8 mg/kg
TD50 at 0.5 h [5]: 213 mg/kg
Activity [6]: Active
Activity [7]: Active
ED50 [8]: 81.7 mg/kg
selectivity ratio at 0.25 h [9]: 11.6
Ratio ED50 [10]: 2.2
inhibition [11]: 78.5%
Activity [12]: inactive
inhibition [13]: 38.1%
Activity [14]: 84%
selectivity ratio at 0.25 h [15]: 4.33
ED50 [16]: 16.8 mg/kg
Activity [17]: Active
inhibition [18]: 29.9%
selectivity ratio at 0.5 h [19]: 4.13
Activity [20]: inactive
inhibition [21]: 76.3%
Activity [22]: Dose-dependent effect
Activity [23]: inactive
ED50 [24]: 24.6 mg/kg
selectivity ratio at 0.5 h [25]: 12.7
TD50 at 0.25 h [26]: 285 mg/kg
Activity [27]: Active
selectivity ratio at 0.5 h [28]: 2.85
selectivity ratio at 0.25 h [29]: 3.49
ED50 [30]: 51.6 mg/kg
